Measurements: patent publication US8586755B2, “Substituted nicotinamides as KCNQ2/3 modulators” (Grünenthal GmbH, priority 2009, dated 2013)

Biological target: T1, KCNQ2/3 channels (Homo sapiens, UniProt O43525+O43526)
T1 construct: expressed in transfected cells
Test: Fluorescence assay using a voltage sensitive dye (fluorimetry)
Type: cell-based
Conditions: CHO-K1 cells expressing KCNQ2/3 channels; for EC50: agonistic activity; for Emax: retigabine 50 μM = 100%, read-out: Fluorimetry % efficacy (retigabine 50 μM = 100%)
Procedure: Pharmacological Experiments Fluorescence Assay Using a Voltage Sensitive Dye
Human CHO-K1 cells expressing KCNQ2/3 channels are cultivated adherently at 37° C., 5% CO2 and 95% humidity in cell culture bottles (e.g. 80 cm^2 TC flasks, Nunc) with DMEM-high glucose (Sigma Aldrich, D7777) including 10% FCS (PAN Biotech, e.g. 3302-P270521) or alternatively MEM Alpha Medium (1×, liquid, Invitrogen, #22571), 10% fetal calf serum (FCS) (Invitrogen, #10270-106, heat-inactivated) and the necessary selection antibiotics.
Before being sown out for the measurements, the cells are washed with a 1×DPBS buffer without Ca^2+/Mg^2+ (e.g. Invitrogen, #14190-094) and detached from the bottom of the culture vessel by means of Accutase (PAA Laboratories, #L11-007) (incubation with Accutase for 15 min at 37° C.). The cell count then present is determined using a CASY™ cell counter (TCC model, Schärfe System) in order subsequently to apply, depending on the density optimization for the individual cell line, 20,000-30,000 cells/well/100 μl of the described nutrient medium to 96-well measuring plates of the Corning™ CellBIND™ type (Flat Clear Bottom Black Polystyrene Microplates, #3340). Incubation is then carried out for one hour at room temperature, without gassing or adjusting the humidity, followed by incubation for 24 hours at 37° C., 5% CO2 and 95% humidity.
The voltage-sensitive fluorescent dye from the Membrane Potential Assay Kit (Red™ Bulk format part R8123 for FLIPR, MDS Analytical Technologies™) is prepared by dissolving the contents of a vessel Membrane Potential Assay Kit Red Component A in 200 ml of extracellular buffer (ES buffer, 120 mM NaCl, 1 mM KCl, 10 mM HEPES, 2 mM CaCl2, 2 mM MgCl2, 10 mM glucose; pH 7.4). After removal of the nutrient medium, the cells are washed with 200 μl of ES buffer, then covered with a layer of 100 μl of the dye solution prepared above and incubated for 45 min at room temperature with the exclusion of light.
The fluorescence measurements are carried out with a BMG Labtech FLUOstar™ BMG Labtech NOVOstar™ or BMG Labtech POLARstar™ instrument (525 nm excitation, 560 nm emission, Bottom Read mode). After incubation of the dye, 50 μl of the test substances in the desired concentrations, or 50 μl of ES buffer for control purposes, are introduced into separate cavities of the measuring plate and incubated for 30 min at room temperature while being shielded from light. The fluorescence intensity of the dye is then measured for 5 min and the fluorescence value F1 of each well is thus determined at a given, constant time. 15 μl of a […] KCl solution ([…]) are then added to each well. The change in fluorescence is subsequently measured until all the relevant measured values have been obtained (mainly 5-30 min). At a given time after KCl application, a fluorescence value F2 is determined, in this case at the time of the fluorescence peak.
For calculation, the fluorescence intensity F2 is compared with the fluorescence intensity F1, and the agonistic activity of the target compound on the potassium channel is determined therefrom. F2 and F1 are calculated as follows: […]
In order to determine whether a substance has agonistic activity,
A substance has an agonistic activity on the potassium channel when
[formula] it is possible to conclude that a target compound has agonistic activity if an increase in
[formula] is to be observed as the dosage of the target compound increases.
Calculations of EC50 values are carried out with the aid of ‘Prism v4.0’ software (GraphPad Software™).

EC50 [nM]	Emax [%]	SMILES
77	104	O=C(NCc1ccc(C(F)(F)F)cc1)c1cccnc1SCCCc1ccc(F)cc1 [compound 80, 2-[3-(4-Fluorophenyl)-propylsulfanyl]-N-[[4-(trifluoromethyl)-phenyl]-methyl]-pyridine-3-carboxylic acid amide]
8020	89	O=C(NCCc1cccnc1)c1cccnc1SCCCc1ccc(F)cc1 [compound 81, 2-[3-(4-Fluorophenyl)-propylsulfanyl]-N-(2-pyridine-3-yl-ethyl)-pyridine-3-carboxylic acid amide]
6460	96	O=C(NCCc1ccccn1)c1cccnc1SCCCc1ccc(F)cc1 [compound 82, 2-[3-(4-Fluorophenyl)-propylsulfanyl]-N-(2-pyridine-2-yl-ethyl)-pyridine-3-carboxylic acid amide]
139	171	O=C(NCc1ccccc1O)c1cccnc1SCCCc1ccc(F)cc1 [compound 83, 2-[3-(4-Fluorophenyl)-propylsulfanyl]-N-[(2-hydroxyphenyl)-methyl]-pyridine-3-carboxylic acid amide]
3510	55	O=C(NCc1cccc(O)c1)c1cccnc1SCCCc1ccc(F)cc1 [compound 84, 2-[3-(4-Fluorophenyl)-propylsulfanyl]-N-[(3-hydroxyphenyl)-methyl]-pyridine-3-carboxylic acid amide]
394	59	Cc1cccc(CCNC(=O)c2cccnc2SCCCc2ccc(F)cc2)c1 [compound 85, 2-[3-(4-Fluorophenyl)-propylsulfanyl]-N-[2-(m-tolyl)-ethyl]-pyridine-3-carboxylic acid amide]
–	26	Cc1ccccc1CCNC(=O)c1cccnc1SCCCc1ccc(F)cc1 [compound 86, 2-[3-(4-Fluorophenyl)-propylsulfanyl]-N-[2-(o-tolyl)-ethyl]-pyridine-3-carboxylic acid amide]
101	116	O=C(NCc1cccc(OC(F)(F)F)c1)c1cccnc1SCCCc1ccc(F)cc1 [compound 87, 2-[3-(4-Fluorophenyl)-propylsulfanyl]-N-[[3-(trifluoromethyloxy)-phenyl]-methyl]-pyridine-3-carboxylic acid amide]
3760	53	O=C(NCc1ccc(O)cc1)c1cccnc1SCCCc1ccc(F)cc1 [compound 88, 2-[3-(4-Fluorophenyl)-propylsulfanyl]-N-[(4-hydroxyphenyl)-methyl]-pyridine-3-carboxylic acid amide]
5450	72	O=C(NCCc1ccncc1)c1cccnc1SCCCc1ccc(F)cc1 [compound 89, 2-[3-(4-Fluorophenyl)-propylsulfanyl]-N-(2-pyridine-4-yl-ethyl)-pyridine-3-carboxylic acid amide]
–	37	Cc1ccc(CCNC(=O)c2cccnc2SCCCc2ccc(F)cc2)cc1 [compound 90, 2-[3-(4-Fluorophenyl)-propylsulfanyl]-N-[2-(p-tolyl)-ethyl]-pyridine-3-carboxylic acid amide]
184	241	CC(CCSc1ncccc1C(=O)NCC1CC2CCC1C2)c1ccc(F)cc1 (centres unmarked) [compound 91, N-(5-Bicyclo[2.2.1]heptanyl-methyl)-2-[3-(4-fluorophenyl)-butylsulfanyl]-pyridine-3-carboxylic acid amide]
138	270	O=C(NCC1CC2CCC1C2)c1cccnc1SCCCc1cc(F)c(F)cc1F (centres unmarked) [compound 92, N-(5-Bicyclo[2.2.1]heptanyl-methyl)-2-[3-(2,4,5-trifluoro-phenyl)-propylsulfanyl]-pyridine-3-carboxylic acid amide]
2810	154	O=C(NCCCc1ccccn1)c1cccnc1SCCCc1ccc(F)cc1 [compound 93, 2-[3-(4-Fluorophenyl)-propylsulfanyl]-N-(3-pyridine-2-yl-propyl)-pyridine-3-carboxylic acid amide]

Further lines, the compound ahead of its results:

SMILES	EC50 [nM]	Emax [%]
O=C(NCC1CC2CCC1C2)c1cccnc1SCCCc1cc(F)cc(C(F)(F)F)c1 (centres unmarked) [compound 69, N-(5-Bicyclo[2.2.1]heptanyl-methyl)-2-[3-[3-fluoro-5-(trifluoromethyl)-phenyl]-propylsulfanyl]-pyridine-3-carboxylic acid amide]	140	259
COc1cccc(CCCSc2ncccc2C(=O)NCC2CC3CCC2C3)c1 (centres unmarked) [compound 70, N-(5-Bicyclo[2.2.1]heptanyl-methyl)-2-[3-(3-methoxyphenyl)-propylsulfanyl]-pyridine-3-carboxylic acid amide]	244	308
O=C(NCc1ccc(F)c(F)c1)c1cccnc1SCCCc1ccc(F)cc1 [compound 71, N-[(3,4-Difluoro-phenyl)-methyl]-2-[3-(4-fluorophenyl)-propylsulfanyl]-pyridine-3-carboxylic acid amide]	72	107
O=C(NCc1ccc2c(c1)CCO2)c1cccnc1SCCCc1ccc(F)cc1 [compound 72, N-(2,3-Dihydro-benzofuran-5-yl-methyl)-2-[3-(4-fluorophenyl)-propylsulfanyl]-pyridine-3-carboxylic acid amide]	85	85
O=C(NCC1CC2CCC1C2)c1cccnc1SCCCc1cccc(O)c1 (centres unmarked) [compound 73, N-(5-Bicyclo[2.2.1]heptanyl-methyl)-2-[3-(3-hydroxyphenyl)-propylsulfanyl]-pyridine-3-carboxylic acid amide]	377	268
CC(CCc1ccc(F)cc1)Sc1ncccc1C(=O)NCC1CC2CCC1C2 (centres unmarked) [compound 74, N-(5-Bicyclo[2.2.1]heptanyl-methyl)-2-[[3-(4-fluorophenyl)-1-methyl-propyl]sulfanyl]-pyridine-3-carboxylic acid amide]	62	260
CC(CSc1ncccc1C(=O)NCC1CC2CCC1C2)Cc1ccc(F)cc1 (centres unmarked) [compound 75, N-(5-Bicyclo[2.2.1]heptanyl-methyl)-2-[[3-(4-fluorophenyl)-2-methyl-propyl]sulfanyl]-pyridine-3-carboxylic acid amide]	37	261
COc1ccccc1CNC(=O)c1cccnc1SCCCc1ccc(F)cc1 [compound 76, 2-[3-(4-Fluorophenyl)-propylsulfanyl]-N-[(2-methoxyphenyl)-methyl]-pyridine-3-carboxylic acid amide]	–	33
COc1cccc(CNC(=O)c2cccnc2SCCCc2ccc(F)cc2)c1 [compound 77, 2-[3-(4-Fluorophenyl)-propylsulfanyl]-N-[(3-methoxyphenyl)-methyl]-pyridine-3-carboxylic acid amide]	233	118
O=C(NCCc1ccccc1)c1cccnc1SCCCc1ccc(F)cc1 [compound 78, 2-[3-(4-Fluorophenyl)-propylsulfanyl]-N-phenethyl-pyridine-3-carboxylic acid amide]	319	53
O=C(NCc1ccc(OC(F)(F)F)cc1)c1cccnc1SCCCc1ccc(F)cc1 [compound 79, 2-[3-(4-Fluorophenyl)-propylsulfanyl]-N-[[4-(trifluoromethyloxy)-phenyl]-methyl]-pyridine-3-carboxylic acid amide]	101	103
